From patent US11241480B2, “Methods for modulation of dietary and microbial exposure with compositions comprising an EGFR ligand” (Washington University, priority 2017, dated 2022)

Tests used:
colon draining MLN = assay: MLN culture cytokines and colon H/E histology on DOL35; assay type: in vivo; details: DOL35 mice; for colon pathology (H/E sections): EGFRi DOL14 and 16 or DOL24 and 26, intracolonic EGF DOL10-21
Procedure: Isolation of cellular populations and flow cytometry: Small intestines or colons were harvested, rinsed with PBS, and Peyer's patches or colonic patches were removed. Epithelial cellular populations were released by incubating for 15 min three times in a 37° C. rotating incubator in HBSS media (BioWhittaker, Walkersville, Md.) containing 5 mM EDTA as previously described. Isolation of splenic, MLN and lamina propria (LP) cellular populations was performed as previously described. In some experiments, single cell suspensions of MLN were cultured in cell culture media for three days as previously described. The first wash of HBSS+EDTA was used to isolate goblet cells as below. SI and colonic LP-MNPs were identified as 7AAD^−, CD45^+, CD11c^+, MHCII^+for flow cytometric sorting. Goblet cells were identified as CD45^−, CD24^−CK18^+, UEA-I^+for flow cytometric sorting as previously described. For intracellular antigens and cytokines, cells were fixed and permeabilized overnight and stained per the manufacturers recommendations (eBioscience). Flow cytometry was performed with a FACScan cytometer (BD Biosciences, San Jose, Calif.) retrofitted with additional lasers. Data acquisition was performed using CellQuest (BD Biosciences) and Rainbow (Cytek,Fremont, Calif.) or FlowJo software (Tree Star, Ashland, OR). Data analysis was performed on a Macintosh computer running FlowJo software.
Measurement of cytokines, EGF, and immunoglobulins: Cytokines and EGF were measured using the using ELISAs for EGF (R&D systems), phosphorylated MAPK, phosphorylated EGFR, IL17 (eBioscience), IFNγ and IL-10, (R&D systems) per the manufacturers recommendations. Luminal EGF was measured in stomach, SI, and colonic contents; to isolate contents the stomach was opened and contents was added to 1 ml PBS. […] Phosphorylated MAPK, and phosphorylated EGFR was measured on epithelial cells from the SI or colon isolated by one 15 minute wash with HBSS+EDTA as described above. Cytokines were measured on supernatants from cultured MLNs.

[1] = test system: goblet cell associated antigen passages (GAPs); assay: Enumeration of goblet cell associated antigen passages (GAPs) in SI and colon by in vivo two-photon imaging and fixed sections; design: species or system mice
Procedure: Intravital two-photon (2P) microscopy: Mice were anesthetized using nebulized isofluorane in 95% O2/5% CO2. Intravital preparation of the intestine was performed as previously described. To detect GAPs, lysine fixable fluorescently-labeled dextran 10,000 MW (10 mg/mL) and diamidino-2-phenylindole (DAPI; 10 mg/mL) were injected intraluminally 20 minutes prior to imaging, and imaging was performed for up to one hour. To detect paracellular leak fluorescently labeled dextran 3,000 MW (10 mg/mL) and DAPI (10 mg/mL) were injected intraluminally 20 minutes prior to imaging. To detect the extension of trans-epithelial dendrites by APCs, CD11c^YFP or CX3CR1^GFP were imaged as above using 10,000 MW fluorescent dextran to outline the epithelial surface. Tissues were excited using a Ti:sapphire laser tuned to 890 nm (Chameleon X R, Coherent). Time-lapse imaging was performed with a custom-built 2P microscope running ImageWarp acquisition software (A&B Software, New London, Conn.). Epithelial integrity was assessed by dextran and DAPI staining as described. Following imaging, tissues were placed in 10% formalin buffered phosphate solution (Fisher Scientific) to fix dextrans in place to confirm 2P findings and for further analysis by immunofluorescence microscopy.
In some experiments mice were treated with 150 μg/kg carbachol chloride i.p. 10 minutes before dextran, 100 mg/kg tropicamide (mAChR4 selective antagonist) i.p. 20 minutes before dextran, 500 μg/kg tyrphostin AG1478 (inhibitor of EGFR phosphorylation) i.p. 20 minutes before dextran, 10 mg/kg U-0126 (inhibitor of p42/p44 MAPK phosphorylation) i.p. 20 minutes before dextran, 1-1000 ng EGF (Shenandoah Biotechnologies) injected intraluminally 20 minutes before dextran, 10 μg LPS injected intraluminally 20 minutes before dextran, or 100 μl stomach contents from a DOL 10 mice, or 100 μl heat killed cecal contents from SPF housed adult mice injected intraluminally 20 minutes before dextran was administered. All reagents from Sigma Aldrich, St. Louis, Mo. unless otherwise noted.
Enumeration of GAPs: GAPs were identified as dextran-filled columns measuring approximately 20 μm (height)×5 μm (diameter) traversing the epithelium and containing a nucleus. GAPs were enumerated in the jejunum or mid-transverse colon using Z-stack images of a volume of 225 μm(x) by 250 μm(y) by 50 μm(z) acquired during in vivo 2P imaging as described above. SI GAPs were enumerated as GAPs per villus. When present, colonic GAPs were found on both the surface epithelium and within the crypts, but were enumerated as GAPs per crypt due to difficulty in distinguishing dextran filled GAPs from luminal dextran during in vivo imaging. De-identified and coded video clips were evaluated by a blinded investigator to enumerate GAPS in early life. The number of GAPs per villus and GAPs per crypt seen by 2P imaging were confirmed by immunofluorescence microscopy of tissues that were fixed following 2P imaging. To quantify GAPs per GC, lysine fixable 10,000 MW fluorescent dextran was injected into the lumen and intestines harvested 25 min later. Tissues were fixed with 10% formalin buffered saline for 45 min, sectioned, and stained with antibodies directed against cyt18. GCs were identified cyt18+ epithelial cells with GC morphology and GAPs as dextran containing epithelial cells defined as above.
Intravital two-photon (2P) microscopy: Mice were anesthetized using nebulized isofluorane in 95% O2/5% CO2. Intravital preparation of the intestine was performed as previously described. To detect GAPs, tetramethylrodamine labeled dextran 10,000 MW (10 mg/mL) or fluorescein labeled dextran 10,000 MW (10 mg/mL) and diamidino-2-phenylindole (DAPI; 10 mg/mL) were injected intraluminally 20 minutes prior to imaging and imaging was performed for up to one hour. Tissues were excited using a Ti:sapphire laser tuned to 890 nm (Chameleon XR, Coherent). […]

| Molecule | inflammatory cytokine production in the colon draining MLN (colon draining MLN; EGFRi post-weaning (DOL24 and 26)) | colon pathology (H/E sections) (colon draining MLN) | GAP formation in SI and colon ([1]; DOL 8 mice (neonatal phase)) | SI GAP formation ([1]; DOL 18 mice) | colonic GAP formation ([1]; DOL 28, post weaning) | GAP formation in the SI and colon ([1]; all phases of early life (DOL8, 18, 28)) | colonic GAP formation / dextran uptake by colonic epithelial cells ([1]; DOL 14 mice (post-neonatal phase), wildtype) | colonic GAP formation ([1]; DOL 18 mice (post-neonatal phase), agent given luminally) | luminal EGF concentration below which colonic and SI GCs formed GAPs (a concentration that inhibits GAPs on short term exposure) ([1]; DOL ~10 (colon) and DOL ~18 (SI)) |
| --- | --- | --- | --- | --- | --- | --- | --- | --- | --- |
| COc1cc2ncnc(Nc3cccc(Cl)c3)c2cc1OC [EGFRi, tyrphostin AG1478] | results in inflammatory cytokine production in the colon draining MLN | does not induce overt pathologic changes | induced colonic and SI GAPs | induced | induced | allowed GAP formation in the SI and colon during all phases of early life |  |  |  |
| EGF: recombinant murine EGF (Shenandoah); EGFR ligand, given luminally or intracolonically |  | no overt pathology |  |  |  |  | inhibited | inhibited GAPs | < 1000 µg/mL |
